Reference: ChEMBL document CHEMBL1201862, “PubChem BioAssay data set” (2004)
Activity calls are given as the source filed them.

Columns and labels:
[1] = target: T1, Calpain-2 catalytic subunit (Sus scrofa, UniProt P43367); test: pig calpain II inhibitor potency, dose response, biochemical, fluorogenic peptide substrate (AID 1420); type: functional
T1 sequence (P43367 whole entry): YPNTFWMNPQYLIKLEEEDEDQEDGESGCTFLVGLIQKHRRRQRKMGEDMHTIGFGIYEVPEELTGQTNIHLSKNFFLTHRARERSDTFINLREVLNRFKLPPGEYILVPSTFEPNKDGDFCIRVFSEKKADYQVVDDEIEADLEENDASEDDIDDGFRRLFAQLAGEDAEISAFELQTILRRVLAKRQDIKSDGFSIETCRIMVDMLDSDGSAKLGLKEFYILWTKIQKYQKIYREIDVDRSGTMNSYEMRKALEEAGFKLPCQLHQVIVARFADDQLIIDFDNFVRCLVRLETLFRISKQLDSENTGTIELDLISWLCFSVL

[2] = target: Cytochrome P450 2C9 (Homo sapiens, UniProt P11712)
Cytochrome P450 2C9, sequence (P11712 whole entry): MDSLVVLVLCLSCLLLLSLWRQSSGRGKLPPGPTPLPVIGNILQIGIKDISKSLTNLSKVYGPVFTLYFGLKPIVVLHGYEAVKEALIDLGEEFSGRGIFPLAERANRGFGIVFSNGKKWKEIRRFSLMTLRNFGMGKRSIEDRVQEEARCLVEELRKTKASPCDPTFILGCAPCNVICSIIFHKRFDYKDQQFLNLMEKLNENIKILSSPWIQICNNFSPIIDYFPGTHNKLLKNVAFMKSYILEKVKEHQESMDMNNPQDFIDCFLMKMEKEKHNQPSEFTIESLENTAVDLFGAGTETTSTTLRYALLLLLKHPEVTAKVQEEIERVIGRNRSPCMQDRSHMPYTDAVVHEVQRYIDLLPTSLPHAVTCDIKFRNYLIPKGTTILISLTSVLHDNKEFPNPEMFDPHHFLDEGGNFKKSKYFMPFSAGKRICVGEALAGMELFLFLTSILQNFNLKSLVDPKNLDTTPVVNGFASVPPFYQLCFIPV

[3] = cells; type: functional, cell-based
[4] = cells; type: functional, cell-based; remark: listed apart in the source
[5] = NIH-3T3 fibroblast cytotoxicity, dose response, cytotoxicity control, cell-based, fluorescence, Alamar Blue, secondary assay (AID 2327); type: functional;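 also: NIH-3T3 mouse fibroblasts cultured with fluconazole at 8 µg/mL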
[6] = target: T2, Replicative DNA helicase DnaB (Mycobacterium tuberculosis, UniProt P9WMR3); test: DnaB intein splicing inhibitors, dose response, biochemical, cell-free fluorescence (AID 449749); type: functional
T2 sequence (P9WMR3 whole entry): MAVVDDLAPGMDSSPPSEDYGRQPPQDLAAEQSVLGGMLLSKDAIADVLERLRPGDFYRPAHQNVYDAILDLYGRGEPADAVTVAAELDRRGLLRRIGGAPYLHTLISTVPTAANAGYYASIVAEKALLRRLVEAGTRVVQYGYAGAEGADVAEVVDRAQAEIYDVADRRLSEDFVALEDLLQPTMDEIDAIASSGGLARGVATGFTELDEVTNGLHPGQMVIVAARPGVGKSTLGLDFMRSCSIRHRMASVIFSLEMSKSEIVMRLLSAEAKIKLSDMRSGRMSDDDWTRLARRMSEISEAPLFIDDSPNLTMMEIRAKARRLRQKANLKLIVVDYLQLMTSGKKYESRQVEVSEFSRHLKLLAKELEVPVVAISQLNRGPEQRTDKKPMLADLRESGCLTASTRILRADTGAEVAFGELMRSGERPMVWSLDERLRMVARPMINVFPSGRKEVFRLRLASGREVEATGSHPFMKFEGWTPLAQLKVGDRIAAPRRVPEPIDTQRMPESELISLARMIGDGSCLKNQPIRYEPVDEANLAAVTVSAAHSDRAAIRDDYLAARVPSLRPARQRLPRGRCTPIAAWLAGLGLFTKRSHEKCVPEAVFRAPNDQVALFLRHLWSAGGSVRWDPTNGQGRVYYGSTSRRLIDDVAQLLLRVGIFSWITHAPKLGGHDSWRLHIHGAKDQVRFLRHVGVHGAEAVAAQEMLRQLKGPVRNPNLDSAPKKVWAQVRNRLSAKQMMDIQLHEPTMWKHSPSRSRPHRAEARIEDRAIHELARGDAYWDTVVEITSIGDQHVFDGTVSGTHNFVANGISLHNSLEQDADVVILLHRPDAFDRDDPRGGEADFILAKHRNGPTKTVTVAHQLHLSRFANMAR

[7] = target: T3, Protein RecA (Mycobacterium tuberculosis, UniProt P9WHJ3); test: Fluorescence Cell-Free Homogeneous Dose Retest to Identify Inhibitors of RecA-Intein Splicing Activity. [Related pubchem assays (depositor defined):AID2097, AID2223, AID489010, AID492950]; type: functional
T3 sequence (P9WHJ3 whole entry): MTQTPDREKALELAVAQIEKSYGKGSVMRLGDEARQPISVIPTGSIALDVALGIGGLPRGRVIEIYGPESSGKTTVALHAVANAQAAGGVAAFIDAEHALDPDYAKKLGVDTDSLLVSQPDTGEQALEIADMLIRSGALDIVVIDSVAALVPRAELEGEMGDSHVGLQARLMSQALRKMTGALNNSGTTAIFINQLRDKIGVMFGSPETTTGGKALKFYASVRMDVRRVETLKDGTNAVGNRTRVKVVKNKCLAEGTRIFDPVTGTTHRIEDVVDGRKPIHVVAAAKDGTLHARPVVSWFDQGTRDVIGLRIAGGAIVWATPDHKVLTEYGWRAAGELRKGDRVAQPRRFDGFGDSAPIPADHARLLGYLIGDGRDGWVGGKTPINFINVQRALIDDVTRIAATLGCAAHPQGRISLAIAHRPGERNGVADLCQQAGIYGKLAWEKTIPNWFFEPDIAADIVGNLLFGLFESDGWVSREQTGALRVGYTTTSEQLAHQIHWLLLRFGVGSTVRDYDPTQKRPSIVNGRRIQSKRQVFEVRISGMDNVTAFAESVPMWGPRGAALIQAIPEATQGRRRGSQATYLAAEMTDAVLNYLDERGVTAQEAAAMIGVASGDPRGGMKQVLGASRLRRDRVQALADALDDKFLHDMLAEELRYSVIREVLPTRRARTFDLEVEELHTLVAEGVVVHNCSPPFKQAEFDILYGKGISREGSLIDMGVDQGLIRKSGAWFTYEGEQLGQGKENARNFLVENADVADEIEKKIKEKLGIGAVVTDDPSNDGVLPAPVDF

[8] = C. albicans growth with fluconazole, confirmation, fluorescence, retest (AID 2467); type: functional, cell-based
[9] = target: T4, Polyadenylate-binding protein 1 (Homo sapiens, UniProt P11940); test: PABP1 MLLE–PAM2 interaction inhibitors, dose response, miRNA deadenylation inhibitor project, biochemical, fluorescence polarization, Cy5-PAM2 peptide, secondary (AID 602260); type: functional; conditions: read-out: IC50_Mean
T4 sequence (P11940 whole entry): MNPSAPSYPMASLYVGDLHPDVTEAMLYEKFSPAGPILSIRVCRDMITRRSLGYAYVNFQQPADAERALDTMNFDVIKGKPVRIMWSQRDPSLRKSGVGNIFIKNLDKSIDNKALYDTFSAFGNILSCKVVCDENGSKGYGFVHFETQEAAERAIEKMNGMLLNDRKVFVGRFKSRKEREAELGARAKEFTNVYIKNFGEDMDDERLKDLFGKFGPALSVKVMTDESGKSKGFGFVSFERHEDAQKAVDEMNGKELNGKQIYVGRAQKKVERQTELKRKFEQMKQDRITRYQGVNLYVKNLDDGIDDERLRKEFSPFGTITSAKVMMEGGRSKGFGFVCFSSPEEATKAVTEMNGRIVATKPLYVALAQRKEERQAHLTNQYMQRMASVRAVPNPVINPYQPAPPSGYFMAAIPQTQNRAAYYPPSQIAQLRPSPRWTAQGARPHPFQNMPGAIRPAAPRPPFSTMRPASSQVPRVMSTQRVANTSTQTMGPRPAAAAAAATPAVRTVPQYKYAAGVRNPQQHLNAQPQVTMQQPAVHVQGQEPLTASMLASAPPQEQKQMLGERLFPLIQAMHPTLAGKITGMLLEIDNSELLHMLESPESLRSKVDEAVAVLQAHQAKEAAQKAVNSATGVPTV

[10] = target: T4, Polyadenylate-binding protein 1; test: PABP1 MLLE–PAM2 binding inhibitor potency, dose response, biochemical, fluorescence polarization, FITC-PAM2 peptide (AID 602259); type: functional; conditions: read-out: IC50_Mean
[11] = P. falciparum Dd2 growth inhibitors, dose response, SYBR Green, cherry-picked samples (AID 1159567); type: functional, cell-based
[12] = target: Cytochrome P450 2C19 (Homo sapiens, UniProt P33261); test: Cytochrome panel assay with activity outcomes. Panel member name: p450-cyp2c19 Compounds with AC50 equal or less than 10 uM are considered active; type: functional
Cytochrome P450 2C19, sequence (P33261 whole entry): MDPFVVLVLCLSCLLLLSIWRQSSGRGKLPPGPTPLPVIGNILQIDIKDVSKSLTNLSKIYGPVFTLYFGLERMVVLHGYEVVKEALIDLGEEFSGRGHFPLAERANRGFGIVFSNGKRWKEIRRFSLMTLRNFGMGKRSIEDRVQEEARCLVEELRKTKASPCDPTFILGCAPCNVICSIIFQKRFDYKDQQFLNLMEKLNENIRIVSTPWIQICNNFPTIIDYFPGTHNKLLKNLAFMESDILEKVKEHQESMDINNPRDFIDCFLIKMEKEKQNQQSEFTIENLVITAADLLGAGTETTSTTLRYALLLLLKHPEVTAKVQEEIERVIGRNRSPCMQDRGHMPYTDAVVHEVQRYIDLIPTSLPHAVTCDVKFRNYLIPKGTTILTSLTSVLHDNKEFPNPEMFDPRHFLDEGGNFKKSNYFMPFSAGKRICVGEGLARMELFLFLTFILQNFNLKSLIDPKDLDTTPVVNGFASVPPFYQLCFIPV

[13] = target: T5, Cytochrome P450 1A2 (Homo sapiens, UniProt P05177);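 also: PubChem cytochrome P450 panel assay, CYP1A2 panel member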
T5 sequence (P05177 whole entry): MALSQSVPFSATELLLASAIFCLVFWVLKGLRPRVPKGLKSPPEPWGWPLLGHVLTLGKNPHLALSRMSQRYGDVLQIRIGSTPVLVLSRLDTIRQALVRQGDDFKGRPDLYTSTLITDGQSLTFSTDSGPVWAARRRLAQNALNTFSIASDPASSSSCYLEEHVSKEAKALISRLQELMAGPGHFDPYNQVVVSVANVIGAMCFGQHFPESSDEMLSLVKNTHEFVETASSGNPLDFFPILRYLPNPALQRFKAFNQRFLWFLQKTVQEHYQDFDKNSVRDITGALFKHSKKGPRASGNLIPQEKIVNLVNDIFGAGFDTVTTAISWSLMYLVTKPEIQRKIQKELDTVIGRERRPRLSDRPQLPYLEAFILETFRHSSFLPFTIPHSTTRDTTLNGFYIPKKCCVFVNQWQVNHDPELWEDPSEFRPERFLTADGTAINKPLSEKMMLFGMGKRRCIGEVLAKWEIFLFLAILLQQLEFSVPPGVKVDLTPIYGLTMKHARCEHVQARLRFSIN

[14] = target: Cytochrome P450 3A4 (Homo sapiens, UniProt P08684);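 also: CYP3A4 tested as one member of a cytochrome P450 panel screen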
Cytochrome P450 3A4, sequence (P08684 whole entry): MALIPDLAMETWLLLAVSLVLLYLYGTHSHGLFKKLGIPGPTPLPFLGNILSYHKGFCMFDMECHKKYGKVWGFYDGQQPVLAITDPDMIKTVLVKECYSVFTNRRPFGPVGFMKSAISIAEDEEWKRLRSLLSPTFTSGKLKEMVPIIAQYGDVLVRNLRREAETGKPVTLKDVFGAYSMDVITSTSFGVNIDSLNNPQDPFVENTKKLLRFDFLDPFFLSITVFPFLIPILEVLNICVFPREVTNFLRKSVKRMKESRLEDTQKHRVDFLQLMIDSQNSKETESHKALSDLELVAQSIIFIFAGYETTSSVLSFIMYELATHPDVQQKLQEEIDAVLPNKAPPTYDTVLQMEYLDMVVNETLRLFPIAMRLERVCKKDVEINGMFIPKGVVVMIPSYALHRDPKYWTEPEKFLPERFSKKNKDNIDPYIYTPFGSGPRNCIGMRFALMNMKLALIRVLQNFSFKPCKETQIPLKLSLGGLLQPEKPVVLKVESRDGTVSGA

[15] = target: Cytochrome P450 2D6 (Homo sapiens, UniProt P10635);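 also: CYP2D6 member of a cytochrome P450 panel assay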
Cytochrome P450 2D6, sequence (P10635 whole entry): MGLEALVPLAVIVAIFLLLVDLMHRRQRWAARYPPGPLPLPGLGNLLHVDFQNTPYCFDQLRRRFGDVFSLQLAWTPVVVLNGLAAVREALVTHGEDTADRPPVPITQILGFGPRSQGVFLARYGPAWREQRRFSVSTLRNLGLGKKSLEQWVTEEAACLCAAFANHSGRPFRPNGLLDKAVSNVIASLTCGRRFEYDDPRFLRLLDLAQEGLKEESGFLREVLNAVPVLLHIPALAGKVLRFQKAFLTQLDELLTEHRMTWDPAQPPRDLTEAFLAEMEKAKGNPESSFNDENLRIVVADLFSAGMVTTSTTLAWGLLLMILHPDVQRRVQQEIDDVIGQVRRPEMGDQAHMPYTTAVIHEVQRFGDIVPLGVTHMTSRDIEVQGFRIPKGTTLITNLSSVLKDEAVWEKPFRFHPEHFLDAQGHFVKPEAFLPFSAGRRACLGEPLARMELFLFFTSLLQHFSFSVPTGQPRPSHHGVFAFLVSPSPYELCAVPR

## N=C(NNC(=O)c1ccccc1)c1cc2ccccc2oc1=O
[1]
  IC50: 48.5 µM (not active)

## COc1ccc(N2CCN(C(c3ccccc3)c3nnnn3Cc3ccc(F)cc3)CC2)cc1 (stereo not given)
[1]
  IC50: 5 µM (not active)

## COc1ccc(Cl)cc1NC(=O)NCCCl
[2]
  AC50: inconclusive

## COc1ccc(-c2nc(C#N)c(N3CCN(C(=O)c4ccco4)CC3)o2)cc1OC
[3]
  EC50: > 350 µM (not active)
[4]
  EC50: > 350 µM (not active)

## Cc1c(C(=O)N2CCC(C)CC2)sc2ncnc(N3CCN(c4ccccc4)CC3)c12
[1]
  IC50: 19 µM (not active)

## O=C(Cc1ccccc1Cl)NCCCn1ccnc1
[1]
  IC50: > 50 µM (not active)

## CCCCOc1cccc(C(=O)NN=C(S)NC2CCCCC2)c1
[5]
  EC50: 37.1 µM (active)

## CCC/C(=N/NC(=O)c1cccc(Cl)c1)c1ccccc1
[3]
  EC50: > 350 µM (not active)
[4]
  EC50: > 350 µM (not active)

## COc1ccc(CNc2ccc3c[nH]nc3c2)c(OC)c1OC
[6]
  AC50: 2.69 µM (active)
[7]
  EC50: 0.797 µM (active)

## CCc1ccc(CNC(=O)CCC(=O)N2Cc3cccc(OC)c3Oc3ncccc32)cc1
[5]
  EC50: > 160 µM (inactive)
[8]
  EC50: > 38 µM (not active)

## O=C1c2ccccc2C(=O)N1CC1=CCS(=O)(=O)C1
[9]
  IC50: > 66 µM (inactive)
[10]
  IC50: > 66 µM (inactive)

## CC(=O)N1CC[C@@H]2[C@@H](CO)Nc3ccc(C#Cc4ccccc4F)cc3[C@@H]21
[11]
  AC50: 10.7 µM (active)

## Cc1cc(SCC(=O)c2cccs2)nc2c(C)cccc12
[2]
  AC50: inconclusive

## O=C(Oc1ccc(-c2ccccc2)cc1)N1CCCCC1
[1]
  IC50: 1.11 µM (not active)

## Cc1ccc(N2C(=O)C3C4C=CC(CN=C(S)Nc5cccc(Cl)c5)(O4)C3C2=O)cc1 (stereo not given)
[9]
  IC50: > 66 µM (inactive)
[10]
  IC50: > 66 µM (inactive)

## COC(=O)c1[nH]c2cc(C)ccc2c1NC(=O)CN1CCc2cc(OC)c(OC)cc2C1
[5]
  EC50: > 150 µM (inactive)
[8]
  EC50: > 38 µM (not active)

## CCOc1ccc(CCNC(=O)CN2CCN(Cc3ccc(F)cc3)C2=O)cc1OCC
[1]
  IC50: > 50 µM (not active)

## CC1Cc2ccccc2N1C(=O)CCN1C(=O)C2C3C=CC(C3)C2C1=O (stereo not given)
[12]; read-out: AC50
  AC50: 10 µM (inconclusive)
[13]
  AC50: 10 µM (inconclusive)
[2]
  AC50: inconclusive

## C/C=C/c1ccccc1[C@@H]1[C@@H](CO)N(S(=O)(=O)c2cccc(F)c2)[C@H]1C#N
[11]
  AC50: 6.96 µM (active)

## CC(C)Cn1c(N)c(C(=O)COC(=O)c2cccc(F)c2)c(=O)n(C)c1=O
[1]
  IC50: 16.2 µM (not active)

## Cc1ccc(SCC(=O)c2sc(-c3ccccc3)nc2C)cc1
[1]
  IC50: 6.06 µM (not active)

## CCOc1ccc(NC(=O)NNC(=O)c2cc3ccccc3cc2O)cc1
[5]
  EC50: > 150 µM (inactive)

## CCOc1cc(C)ccc1OCc1nnc(SCC(=O)c2cccc([N+](=O)[O-])c2)n1CC
[2]
  AC50: inconclusive

## Cn1nc(C(C)(C)C)cc1C(=O)Sc1cccc(Br)c1
[6]
  AC50: 16.4 µM (active)
[7]
  EC50: 37.1 µM (inconclusive)
[9]
  IC50: > 66 µM (inactive)
[10]
  IC50: > 66 µM (inactive)

## Cc1cc(C)c(S(=O)(=O)NNC(=O)C2CCN(Cc3ccccc3)CC2)c(C)c1
[14]
  AC50: 22.4 µM (inconclusive)
[2]
  AC50: inconclusive

## COc1ccc2c(Cc3c4ccccc4cc4ccccc34)cncc2c1O
[15]
  AC50: 3.16 µM (inconclusive)
[2]
  AC50: inconclusive

## CC1CCCN(C2=C(Cl)C(=O)N(c3cccc(Cl)c3)C2=O)C1 (stereo not given)
[6]
  AC50: > 380 µM (inactive)
[7]
  EC50: 2.86 µM (active)

## COc1ccc2c3c([nH]c2c1)[C@H](CO)N(Cc1ccccc1F)CC31CN(C(=O)C2CCC2)C1
[11]
  AC50: 7.75 µM (active)

## CCCCNS(=O)(=O)c1ccc(OC)c(Cl)c1Cl
[13]
  AC50: 4.47 µM (inconclusive)
[2]
  AC50: inconclusive

## Cc1ccc(C(=O)NC(=S)Nc2ccc(N3CCN(C(=O)c4ccco4)CC3)cc2)cc1
[9]
  IC50: > 66 µM (inactive)
[10]
  IC50: > 66 µM (inactive)

## O=C(Nc1ccccn1)c1ccco1
[12]
  AC50: inconclusive
[2]
  AC50: inconclusive

## CSc1nn2c(C(F)(F)F)cc(C(F)(F)F)nc2c1C(=O)O
[5]
  EC50: > 160 µM (inactive)

## C=COC(=O)CSc1snc(SCC(=O)OC)c1C#N
[6]
  AC50: > 380 µM (inactive)
[7]
  EC50: 40.1 µM (active)

## CC(C)CNCC(=O)N1c2ccccc2Sc2ccccc21.O=C(O)C(=O)O
[15]
  AC50: 28.2 µM (inconclusive)
[13]
  AC50: 15.8 µM (inconclusive)
[2]
  AC50: inconclusive

## Oc1ccc(Br)cc1/C=N/c1cccn2cc(-c3ccccc3)nc12
[9]
  IC50: > 66 µM (inactive)
[10]
  IC50: > 66 µM (inactive)

## O=C1CC/[N+](=C\c2ccc(Cl)c(Cl)c2)[N-]1
[6]
  AC50: 17.8 µM (active)
[7]
  EC50: 8.98 µM (active)

## COc1ccc2c3c([nH]c2c1)[C@@H](CO)N(Cc1ccccc1)CC31CCN(C(=O)c2cccnc2)CC1
[11]
  AC50: 4.55 µM (active)

## NN=C(S)Nc1cccc(Cl)c1
[5]
  EC50: > 150 µM (inconclusive)
[8]
  EC50: > 38 µM (not active)

## COc1ccc(S(=O)(=O)N(C(=O)C(C)C)c2ccc3oc(=O)sc3c2)cc1
[9]
  IC50: > 66 µM (inactive)
[10]
  IC50: > 66 µM (inactive)

## Cc1cccc(NC(S)=NCc2cccs2)c1
[1]
  IC50: > 50 µM (not active)
